Laboratory results as given in patent US20070161123A1, “DETERMINATION OF CONCENTRATION OF FK778 BY COMPETITIVE IMMUNOASSAY” (priority 2006, published 2007).

Columns and labels:
antibody to FK778 = assay: Interference of prescription drugs in the […] FK778 competitive chemiluminescent immunoassay; type: binding
Procedure: FK778 assays were performed by an […]® instrument, commercially available from Abbott Laboratories, Abbott Park, Ill., according to the following procedure. See also U.S. Pat. Nos. 5,795,784 and 5,856,194, both of which are incorporated herein by reference. A serum sample (10 μL) was diluted with Line Diluent at a ratio of 1 part sample to 20 parts Line Diluent. A portion of the diluted sample (10 μL) was mixed with 90 μL of Conjugate Reagent and 50 μL of Line Diluent. Magnetic Microparticle Reagent (50 μL) and Bihapten Tracer Reagent (50 μL) were added to the foregoing mixture after a period of six (6) seconds. The resulting mixture (250 μL) was incubated for 25 minutes. The microparticles were washed three (3) times with 1 mL of Line Diluent. The magnetic particles were attracted to a magnet at the same time that they were being washed. The washed microparticles were treated with Pretrigger Reagent (100 μL acidic hydrogen peroxide). Finally, the chemiluminescent reaction was triggered by addition of Trigger Reagent (alkaline detergent solution (300 μL)). Measurement of light generated was carried out by means of a photomultiplier tube.
This example illustrates interference with prescription drugs. Interference was tested for 44 of 45 prescription drugs at levels recommended in NCCLS document EP-7P. Interference was tested in the presence of FK778 and absence of FK778 in the sample. Interference was defined as greater than 5 μg/mL (without FK778) or greater than 10% (with FK778). […] Both interferences were expected; fluorescein because of its competition with the FK778-fluorescein bihapten tracer and A77,1726 because of its similarity in structure to FK778.
Fluorescein is used in in vivo diagnostic procedures to measure blood flow in the eye and is not expected to be present in patients undergoing a transplant. 10 Nevertheless, fluorescein was tested more thoroughly to estimate the magnitude of the interference at concentrations lower than 400 μg/mL.
Additional testing was also carried out with A77, 1726 to assess the cross-reactivity of this molecule in the presence and absence of FK778.

[1] = humans; cited from earlier work

With `C/C(O)=C(\C#N)C(=O)Nc1ccc(C(F)(F)F)cc1` [A77 1726] the “% Cross-reactivity A77,1726” value (antibody to FK778; A77,1726 50 μg/mL, High FK778) was 13%, the “A77,1726 measured as FK778” value (antibody to FK778; A77,1726 50 μg/mL, High FK778) was 152.9 µg/mL and the “% Cross-reactivity A77,1726” value (antibody to FK778; A77,1726 50 μg/mL, Low FK778) was 43%. For the same compound, the “A77,1726 measured as FK778” value (antibody to FK778; A77,1726 50 μg/mL, Low FK778) was 42.3 µg/mL, the “% Cross-reactivity A77,1726” value (antibody to FK778; A77,1726 50 μg/mL, Med FK778) was 24% and the “A77,1726 measured as FK778” value (antibody to FK778; A77,1726 50 μg/mL, Med FK778) was 85 µg/mL. The “% Cross-reactivity A77,1726” value (antibody to FK778; A77,1726 100 μg/mL, High FK778) was 23%, the “A77,1726 measured as FK778” value (antibody to FK778; A77,1726 100 μg/mL, High FK778) was 170.1 µg/mL and the “% Cross-reactivity A77,1726” value (antibody to FK778; A77,1726 100 μg/mL, Low FK778) was 42%. The “A77,1726 measured as FK778” value (antibody to FK778; A77,1726 100 μg/mL, Low FK778) was 62.6 µg/mL, the “% Cross-reactivity A77,1726” value (antibody to FK778; A77,1726 100 μg/mL, Med FK778) was 31% and the “A77,1726 measured as FK778” value (antibody to FK778; A77,1726 100 μg/mL, Med FK778) was 103.4 µg/mL. The “% Cross-reactivity A77,1726” value (antibody to FK778; A77,1726 200 μg/mL, High FK778) was 34%, the “A77,1726 measured as FK778” value (antibody to FK778; A77,1726 200 μg/mL, High FK778) was 209.3 µg/mL and the “% Cross-reactivity A77,1726” value (antibody to FK778; A77,1726 200 μg/mL, Low FK778) was 42%. The “A77,1726 measured as FK778” value (antibody to FK778; A77,1726 200 μg/mL, Low FK778) was 104.8 µg/mL, the “% Cross-reactivity A77,1726” value (antibody to FK778; A77,1726 200 μg/mL, Med FK778) was 37% and the “A77,1726 measured as FK778” value (antibody to FK778; A77,1726 200 μg/mL, Med FK778) was 145.5 µg/mL. The “% Cross-reactivity A77,1726” value (antibody to FK778; A77,1726 200 μg/mL, Zero FK778) was 47%, the “A77,1726 measured as FK778” value (antibody to FK778; A77,1726 200 μg/mL, Zero FK778) was 94.9 µg/mL and the Interference (antibody to FK778; defined as greater than 5 μg/mL (without FK778) or greater than 10% (with FK778)) was “Interference was observed”. The plasma half-life [1] was 15 to 18 days.
For `C#CCC/C(O)=C(\C#N)C(=O)Nc1ccc(C(F)(F)F)cc1` [FK778], the “plasma half-life compared with A77 1726” value [1] is given as “shorter”.
